Legend:
[1] = test system: IRF3 signaling pathway in THP1-Lucia™ ISG cells; assay: THP1-Lucia ISG reporter assay: induction of IRF3-dependent gene expression (secreted luciferase); assay type: cell-based, human; settings: Homo sapiens, THP1-Lucia ISG, PMA-differentiated cells, 18 h after stimulation, read-out: fold increase of IRF3-dependent luciferase activity over background, THP1 ISG; for fold induction at 10 µM: 10 μM compound; for fold induction at 20 µM: 20 μM compound (*)
Description: The compounds were evaluated in the THP1-Lucia™ ISG (interferon stimulated genes) reporter assay to determine if the compounds activate the IRF3 signaling pathway. The THP1-Lucia™ cells (InvivoGen) express the secreted luciferase (Lucia) reporter gene under the control of an IRF-inducible promoter. The reporter cell line was developed from human monocytic leukemia THP-1 cells.
The promoter was comprised of five IFN-stimulated response elements (ISRE) fused to an ISG54 minimal promoter which is unresponsive to NF-kB or AP-1 pathways. […] The IRF3-deficient THP1-Lucia™ ISG IRF3−/−reporter cell line was generated by CRISPR technology from the parent THP1-Lucia™ ISG reporter cell line.
THP1-Lucia™ ISG cells and IRF3-deficient THP1-Lucia™ ISG IRF3−/−cells were differentiated with PMA (100 ng/ml) and stimulated with compounds at the indicated concentrations (5 to 20 μM), positive control, or not treated (background). Luciferase secretion was quantified using the QUANTI-Luc luciferase assay system (InvivoGen) 18 h after stimulation. Data are shown as fold increase luciferase activity over background in Table 7 and represent the IRF3-dependent ISG54 promoter activity by the THP1-Lucia™ ISG cells in response to compounds. […] The fold increase of compounds (10 μM, *20 μM, **5 μM) induced IRF3 dependent luciferase activity is indicated as follows: “≠” indicates less than 2.4 fold increase; “+” indicates a 2.4-4.9 fold increase; “++” indicates a 5-9.9 fold increase; “+++” indicates a 10-19 fold increase; “++++” indicates a 20-39 fold increase; “+++++” indicates greater than or equal to 40 fold increase.

[2] = test system: murine CT26 colon carcinoma cells; assay: RIG-I dependent CXCL10 secretion by CT26 cells (ELISA); assay type: cell-based; settings: supernatant 24 h after stimulation
Description: (§1) The CT26 murine colon carcinoma cell line (ATCC) was used to evaluate the induction of CXCL10 secretion. CXCL10 is an important chemokine in tumor immune biology that recruits tumor-specific T cells to the tumor. To confirm that compound-mediated CXCL10 production was RIG-I specific, RIG-1 deficient CT2-RIG-I−/−cells were generated by Kineta Inc. using CRISPR technology.
(§2) CT26 cells were seeded at a density of 1×10^4 cells per well on a 96-well tissue culture plate in 100 μL of cell culture and cells were incubated at 37° C. and 5% CO2 for 24 hr. Next, CT26 cells were treated with compounds at the indicated concentrations. CXCL10 was quantified by ELISA from supernatants taken 24 h after compound stimulation by use of the CXCL10 Duo Set ELISA kit (Cat #DY466, R&D, Minneapolis, Minn., USA) according to the manufacturer's instructions.
(§3) CXCL10 secretion by CT26 cells in response to compounds (in an amount of 5 to 20 μM) of the present disclosure is shown in Table 8. The compound-induced CXCL10 production was RIG-I dependent, since none of the compounds mediated CXCL10 secretion in RIG-I deficient CT26 RIG-I−/−cells (about 0 pg/mL of CXCL10, or below the level of quantitation). The compounds (10 μM, *20 μM, **5 μM) are indicated in the table as follows: “≠” indicates less than 100 pg/mL; “+” indicates 100-199 pg/mL; “++” indicates 200-399 pg/mL; “+++” indicates 400-799 pg/mL; “++++” indicates 800 to 1599 pg/mL; “+++++” indicates greater than or equal to 1600 pg/ml.

[3] = test system: RIG-I deficient CT26 RIG-I−/− cells; assay: CXCL10 secretion by RIG-I deficient CT26 RIG-I−/− cells (ELISA); assay type: cell-based, murine; settings: compound 5 to 20 μM, 24 h
Description: as §1, §2, §3

Row | Structure (SMILES) | fold induction at 10 µM [1] | CXCL10 secretion, CT26 ([2]; 10 μM compound) | CXCL10 secretion, CT26 RIG-I−/− [3] | CXCL10 secretion, CT26 ([2]; 20 μM compound (*)) | fold induction at 20 µM [1]
1 | O=C(Nc1nc2ccc3scnc3c2s1)c1ccc(-c2ccccc2)cc1OCCCCN1CCOCC1 [Example 38, N-{3,10-dithia-5,12-diazatricyclo[7.3.0.0^2,^6]dodeca-1,4,6,8,11-pentaen-4-yl}-3-[4-(morpholin-4-yl)butoxy]-[1,1′-biphenyl]-4-carboxamide] | 5 to 9.9 | +++ (400-799 pg/mL) | − |  | 
2 | COc1nc2c(ccc3nc(NC(=O)c4cc5ccccc5cc4OCCCCN4CCOCC4)sc32)s1 [Example 32, N-{11-methoxy-3,10-dithia-5,12-diazatricyclo[7.3.0.0^2,^6]dodeca-1,4,6,8,11-pentaen-4-yl}-3-[4-(morpholin-4-yl)butoxy]naphthalene-2-carboxamide] | 10 to 19 | ++ (200-399 pg/mL) | − |  | 
3 | CCc1nc2c(ccc3nc(NC(=O)c4ccc5ccccc5c4)sc32)s1 [Example 18, N-{11-ethyl-3,10-dithia-5,12-diazatricyclo[7.3.0.0^2,^6]dodeca-1,4,6,8,11-pentaen-4-yl}naphthalene-2-carboxamide] | 20 to 39 |  | − | +* (100-199 pg/mL) | 
4 | O=C(Nc1nc2ccc3scnc3c2s1)c1cc2ccccc2cc1OCCC1CCOCC1 [Example 27, N-{3,10-dithia-5,12-diazatricyclo[7.3.0.0^2,^6]dodeca-1,4,6,8,11-pentaen-4-yl}-3-[2-(oxan-4-yl)ethoxy]naphthalene-2-carboxamide] |  | ++ (200-399 pg/mL) | − |  | 5 to 9.9
5 | Cc1nc2c(ccc3nc(NC(=O)c4ccc(N(C)C)cc4)sc32)s1 [Example 6, 4-(dimethylamino)-N-{11-methyl-3,10-dithia-5,12-diazatricyclo[7.3.0.0^2,^6]dodeca-1,4,6,8,11-pentaen-4-yl}benzamide] | 10 to 19 | ++ (200-399 pg/mL) | − |  | 
6 | Cn1c(C(=O)Nc2nc3ccc4scnc4c3s2)cc2ccccc21 [Example 17, N-{3,10-dithia-5,12-diazatricyclo[7.3.0.0^2,^6]dodeca-1,4,6,8,11-pentaen-4-yl}-1-methyl-1H-indole-2-carboxamide] | 10 to 19 | ++ (200-399 pg/mL) | − |  | 
7 | CCN(CCO)CCOc1cc2ccccc2cc1C(=O)Nc1nc2ccc3scnc3c2s1 [Example 45, N-{3,10-Dithia-5,12-diazatricyclo[7.3.0.0^2,6]dodeca-1,4,6,8,11-pentaen-4-yl}-3-{2-[ethyl(2-hydroxyethyl)amino]ethoxy}naphthalene-2-carboxamide carboxamide] | 10 to 19 | +++ (400-799 pg/mL) | − |  | 
8 | O=C(Nc1nc2ccc3scnc3c2s1)c1cc2ccccc2cc1OCCN1CC2CC1CO2 (stereo not shown) [Example 33, N-{3,10-dithia-5,12-diazatricyclo[7.3.0.0^2,^6]dodeca-1,4,6,8,11-pentaen-4-yl}-3-(2-{2-oxa-5-azabicyclo[2.2.1]heptan-5-yl}ethoxy)naphthalene-2-carboxamide] |  | ++++ (800 to 1599 pg/mL) | − |  | 10 to 19
9 | Cn1ccc2ccc(C(=O)Nc3nc4ccc5scnc5c4s3)cc21 [Example 20, N-{3,10-dithia-5,12-diazatricyclo[7.3.0.0^2,^6]dodeca-1,4,6,8,11-pentaen-4-yl}-1-methyl-1H-indole-6-carboxamide] | 10 to 19 | +++ (400-799 pg/mL) | − |  | 
10 | CCN(CC)S(=O)(=O)c1ccc(C(=O)Nc2nc3ccc4sc(C)nc4c3s2)cc1 [Example 3, 4-(diethylsulfamoyl)-N-{11-methyl-3,10-dithia-5,12-diazatricyclo[7.3.0.0^2,^6]dodeca-1,4,6,8,11-pentaen-4-yl}benzamide] |  |  | − | ++* (200-399 pg/mL) | 5 to 9.9
11 | COc1nc2c(ccc3nc(NC(=O)c4ccc5ccccc5c4)sc32)s1 [Example 22, N-{11-methoxy-3,10-dithia-5,12-diazatricyclo[7.3.0.0^2,^6]dodeca-1,4,6,8,11-pentaen-4-yl}naphthalene-2-carboxamide] | 20 to 39 | ++ (200-399 pg/mL) | − |  | 
12 | O=C(Nc1nc2ccc3scnc3c2s1)c1cc2ccccc2cc1OCCN1CCNCC1 [Example 47, N-{3,10-Dithia-5,12-diazatricyclo[7.3.0.0^2,6]dodeca-1,4,6,8,11-pentaen-4-yl}-3-[2-(piperazin-1-yl)ethoxy]naphthalene-2-carboxamide] | 2.4 to 4.9 | + (100-199 pg/mL) | − |  | 
13 | O=C(Nc1nc2ccc3scnc3c2s1)c1ccc2nsnc2c1 [Example 12, N-{3,10-dithia-5,12-diazatricyclo[7.3.0.0^2,^6]dodeca-1,4,6,8,11-pentaen-4-yl}-2,1,3-benzothiadiazole-5-carboxamide] | 5 to 9.9 | ++++ (800 to 1599 pg/mL) | − |  | 
14 | COc1nc2c(ccc3nc(NC(=O)c4cc5ccccc5cc4OCCN4CCOCC4)sc32)s1 [Example 29, N-{11-methoxy-3,10-dithia-5,12-diazatricyclo[7.3.0.0^2,^6]dodeca-1,4,6,8,11-pentaen-4-yl}-3-[2-(morpholin-4-yl)ethoxy]naphthalene-2-carboxamide] | 10 to 19 | + (100-199 pg/mL) | − |  | 
15 | COc1cc2ccccc2cc1C(=O)Nc1nc2ccc3scnc3c2s1 [Example 16, N-{3,10-dithia-5,12-diazatricyclo[7.3.0.0^2,^6]dodeca-1,4,6,8,11-pentaen-4-yl}-3-methoxynaphthalene-2-carboxamide] | 10 to 19 | ++ (200-399 pg/mL) | − |  | 
16 | O=C(Nc1nc2ccc3scnc3c2s1)c1cc2ccsc2cc1OCCN1CCOCC1 [Example 42, N-{3,10-dithia-5,12-diazatricyclo[7.3.0.0^2,^6]dodeca-1,4,6,8,11-pentaen-4-yl}-6-[2-(morpholin-4-yl)ethoxy]-1-benzothiophene-5-carboxamide] | < 2.4 |  | − | +* (100-199 pg/mL) | 
17 | Cn1c(C(=O)Nc2cc3ccc4scnc4c3s2)cc2ccccc21 [Example 71, N-{5,12-dithia-3-azatricyclo[7.3.0.0^2,^6]dodeca-1,3,6,8,10-pentaen-11-yl}-1-methyl-1H-indole-2-carboxamide] |  | + (100-199 pg/mL) |  |  | 
